In US7445931B2, “Compositions and methods for enrichment of neural stem cells using ceramide analogs” (Bresagen, Inc., priority 2002, dated 2008):

Assays:
Oct-4 = Oct-4 immunoblotting of EB8 stage cells incubated with S18; format: cell-based, mouse; settings: EB8 stage cells incubated with 75 μM S18 for 24 hours
Description: In vitro differentiating ES cells at stage EB8 were incubated for […] with 75 μM S18, or 35 μM N-acyl sphingosine or other ceramide analogs. Protein was isolated from cells incubated with S18 for 24 hours and from untreated cells, separated by SDS-PAGE, and the expression of Oct-4 was analyzed by immunoblotting.

sfEBMs in suspension = assay: S18 treatment of sfEBMs in suspension, histology and immunocytochemistry; format: cell-based, human
Description: To perform immunostaining on fixed cells or cytospins, the samples were washed in block buffer (3% goat serum, 1% polyvinyl Pyrolidone, 0.3% Triton X-100 in wash buffer) for 30 minutes, and then incubated with the appropriate dilution of the primary antibody, or combination of antibodies for 4-6 hours at room temperature. The primary antibodies were anti-Map2, a mouse monoclonal antibody recognizing the Map-2 a, b and c isoforms (Sigma, Catalog # M4403) at a 1/500 dilution; anti-Nestin, a rabbit polyclonal antibody (Chemicon, Catalog # AB5922) at a 1/200 dilution; anti-Oct-4, a rabbit polyclonal antibody (Santa Cruz, Catalog # sc-9081) at a 1/200 dilution; sheep anti-Tyrosine Hydroxlyase (TH) antibody (Pel-Freez, Catalog # P60101-0) at a 1/500 dilution; anti-phosphoHistoneH3, a rabbit polyclonal antibody (Upstate, Catalog, # 06-570) at a 1/400 dilution; anti-SSEA4, a mouse monoclonal antibody (Developmental Studies Hybridoma Bank, Catalog # MC-813-70) at a ⅕ dilution. The cells were then washed in wash buffer (50 mM Tris-HCL pH 7.5, and 2.5 mM NaCl) 3 times for 5 minutes each wash. The cells were then incubated for a minimum of 2 hours in secondary antibodies diluted 1:1000, followed by washing in wash buffer. The secondary antibodies were appropriate combinations of Alexa-350 (blue), -488 (green) or -568 (red) conjugated goat anti-chicken, anti-rabbit, anti-sheep or anti-mouse antibodies, all available from Molecular Probes. Some samples were stained with 5 ng/ml DAPI to detect cell nuclei, and were then washed from overnight to 2 days in a large volume of wash buffer. The slides were mounted with mounting medium and a cover slip. Slides were visualized using either a NIKON TS100 inverted microscope or a NIKON TE 2000-S inverted microscope with a Q Imaging digital camera
Essentially serum free embryoid bodies (sfEBMs) were generated as described in Example 6, and were exposed to S18 at different stages of their development in order to assess the timing of depletion of high Oct-4 expressing cells, and in order to determine when neural rosettes could be selected. The sfEBMs in suspension were treated with 10 μM S18 in 50% DMEM/F12, 50% MEDII, supplemented with 1×N2, Glutamine (20 mM), penicillin (0.5 U/ml), and streptomycin (0.5 U/ml) for varying amounts of time, and the sfEBMs were then evaluated histologically and by immunocytochemistry.
Essentially serum free embryoid bodies were derived from protease passaged cells and grown in the presence of 50% MEDII conditioned medium. The embryoid bodies were exposed to 10 μM S18 in the same medium from day 6 to 9 after derivation. At day 9 the S18 treated sfFBMs and matched control sfEBMs not exposed to S18 were fixed, embedded in plastic, cut to 3 micron sections and stained with DAPI to enable the precise determination of the proportion of the total healthy nuclei of an sfEBM that were rosette cell nuclei.

differentiating ES cells = assay: Apoptosis (TUNEL) in ceramide-depleted differentiating ES cells and its restoration by ceramide or analogs; format: cell-based, mouse
Description: Fumonisin B1 (FB1) or myriocin-treated (ceramide-depleted) differentiating ES cells were incubated with natural ceramide. To prepare the natural ceramide, 50 mg of EBs or NPs were resuspended in 500 μl of water, and after phase separation with 500 μl of CHCl3/CH3OH (1:1 by vol.) the neutral lipids were recovered from the lower phase. The neutral lipids were evaporated to dryness with a gentle stream of nitrogen and redissolved in 1 ml of CHCl3. The solution was applied to a silicic acid gel column (0.5 g) and fatty acids and cholesterol washed out with another 15 ml of CHCl3 (Dasgupta and Hogan, 2001 J. Lipid Res., 42:301-308). The ceramide fraction was then eluted with 20 ml of CHCl3/acetone (9:1, by vol.), evaporated to dryness, and the residue (approximately 6 nmoles of ceramide) dissolved in 20 μl of ethanol containing 2% dodecane (vol./vol.). Aliquots of 5 μl were mixed with 1 ml of medium, yielding a final concentration of 1.5 μM natural ceramide for induction of apoptosis (Ji et al., 1995 FEBS Lett., 358:211-214).
Differentiating ES cells at the EB8 cells were dissociated and grown for 24 hours on laminin/ornithin-coated cover slips (NP1 stage) in DMEM/F12 (50/50), supplemented with 1×N2 and 20 ng/ml FGF-2. Cells were incubated for 3 hours with 10 μM bromodeoxyuridine (BrdU) and the TUNEL assay or immunostainings performed after 5 hours of incubation. For immunostaining, cells were fixed with 4% paraformaldehyde in phosphate-buffered saline (PBS). Fixed cells were permeabilized with 0.2% Triton X-100 in PBS for 5 minutes at room temperature and immunostaining performed as described previously (Bieberich et al., 2001 J. Biol. Chem., 276:44396-44404). The nuclei were stained by treatment with 2 μg/ml Hoechst 33258 in PBS for 30 minutes at room temperature. Apoptotic nuclei were stained using the fluorescein FragEL TUNEL assay according to instructions of the manufacturer (Oncogene).
The degree of apoptosis in differentiating ES cultures was determined since it was previously proposed that ceramide elevation induces apoptosis in NPs (Bieberch et al., 2001 J. Biol. Chem., 276:44396-44404). […] Apoptosis was elevated at the EB8 stage ([…]), and was highest at the NP2 stage (35+/−5%). […] Apoptosis was restored by the addition of 30 μM N-acetyl sphingosine (C2-ceramide), 80 μM of the novel ceramide analog N-oleoyl serinol (S18), or 1 μM of natural ceramide that was extracted from differentiating ES cells.

[1] = sfEBMs at day 14, 48 hours exposure to 10 μM S18
[2] = FB1-treated cells at the NP2 stage

Structure (SMILES): CCCCCCCC/C=C\CCCCCCCC(=O)NC(CO)CO [S18, N-(2-hydroxy-1-(hydroxymethyl)ethyl)-oleoylamide]
- Oct-4 immunostaining relative to untreated control cells (Oct-4): 25%
- decrease in Oct-4 protein levels (Oct-4): 75%
- viable embryoid bodies derived from monolayer crater cells (sfEBMs in suspension; 10 μM S18, four days): No viable embryoid bodies were observed
- regions of high Oct-4 expression (residual pluripotent cells) (sfEBMs in suspension; S18 selected sfEBM (10 μM) seeded at day 21, anti-Oct-4 staining): no regions of high Oct-4 expression could be detected
- mitotic activity of neural rosette precursor cells (phosphoHistone H3) (sfEBMs in suspension; day 28 after derivation, 8 days after withdrawal of S18): still mitotically active
- presumptive dopaminergic neurons or their precursors (anti-TH staining) (sfEBMs in suspension; exposure to 10 μM S18): not ablated
- apoptosis in sfEBMs (sfEBMs in suspension; [1]): extensive apoptosis in the bodies
- morphology of rosette regions (sfEBMs in suspension; [1]): morphologically normal
- population surviving incubation (DAPI stained sections) (sfEBMs in suspension; sfEBMs from protease passaged cells, 10 μM S18 from day 6 to 9): a very pure population of neural precursor rosette cells had survived
- dependence of apoptosis on PAR-4 expression (differentiating ES cells; [2]): only seen in cells that expressed PAR-4
- number of PAR-4 positive cells (differentiating ES cells; [2]): did not alter the number of PAR-4 positive cells
- restoration of apoptosis in FB1-treated cells (differentiating ES cells; NP2 stage, 30 μM C2-ceramide, 80 μM S18, or 1 μM natural ceramide): restored
- concentration of endogenous ceramide (differentiating ES cells; S18 incubation of FB1-treated cells at the NP2 stage): did not alter the concentration of endogenous ceramide
